Measurements from PubChem BioAssay (NCI).
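Assay format: 96-well plates, 48-hour exposure. TGI denotes the concentration required for complete inhibition of growth.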

Legend:
Test in all cases: inhibition of tumour cell growth, NCI panel, 48 h
[1] = system: UO-31 renal
[2] = system: DU-145 prostate
[3] = system: NCI/ADR-RES ovarian
[4] = system: SK-MEL-28 melanoma
[5] = system: SW-620 colon
[6] = system: SNB-75 CNS
[7] = system: OVCAR-4 ovarian
[8] = system: NCI-H460 lung
[9] = system: MOLT-4 leukemia
[10] = system: T-47D breast

Structure (SMILES) | TGI [1] [µM] | TGI [2] [µM] | TGI [3] [µM] | TGI [4] [µM] | TGI [5] [µM] | TGI [6] [µM] | TGI [7] [µM] | TGI [8] [µM] | TGI [9] [µM] | TGI [10] [µM]
O=C1C(/C=C/c2ccc(Cl)cc2)=NNC2N1N=C1NC(=O)C3(NN12)c1ccccc1-c1ccccc13 (stereo unspecified) | > 100 | > 100 | > 100 | > 100 | > 100 | > 100 | > 100 | > 100 |  | 
CC(=O)OCC1OC(n2c3c(c(-c4ccco4)c(C#N)c2=S)CCC3)C(OC(C)=O)C(OC(C)=O)C1OC(C)=O (stereo unspecified) | > 100 | > 100 | > 100 | > 100 | > 100 | > 100 | > 100 | > 100 | 45.3 | 
O=c1[nH]c(Nc2cccc(C(F)(F)F)c2)nc2nc[nH]c12 |  | > 100 | > 100 | > 100 | > 100 | > 100 | > 100 |  | > 100 | > 100
O=c1[nH]c(=O)n(C2CC(O)C(CO)O2)cc1OCCCc1ccccc1 (stereo unspecified) | > 100 | > 100 | > 100 | > 100 |  | > 100 | > 100 | > 100 | > 100 | > 100
Cc1ccc(-c2c(C#N)c(S)n(NS(=O)(=O)c3ccc(C)cc3)c(=O)c2C#N)cc1 | 38.5 | > 100 | 77.9 | 61.2 | 39.3 | 37.4 | 36.4 |  | > 100 | 
Nc1c(-c2nc3ccccc3s2)c2ccc([N+](=O)[O-])cc2c(=O)n1-c1cccc(C(=O)O)c1 | 71.8 | 64.7 | > 100 | 59.8 | > 100 | 85.4 | > 100 | > 100 |  | 64.1
CN(C)c1ccc(/C=C(\C#N)C(N)=C(C#N)C#N)cc1 | > 100 | > 100 | > 100 | > 100 | > 100 |  | > 100 | > 100 |  | > 100
CC1CC[C@@]2(OC1)OC1C[C@H]3[C@@H]4C/C(=N\N(C)C)[C@@]5(O)CC(O)CC[C@]5(C)[C@H]4CC[C@]3(C)C1[C@@H]2C (stereo partly specified) | > 100 | > 100 | > 100 | > 100 | > 100 |  | > 100 | > 100 | > 100 | > 100
NC(=O)N1N=C2c3ccccc3CC[C@@H]2C1c1ccccc1 (stereo partly specified) | > 100 |  |  | > 100 | > 100 | > 100 |  | > 100 | > 100 | 
COc1cc(-c2oc3c(OC)c(O)c(OC)c(O)c3c(=O)c2OC)cc(O)c1OC | > 100 | > 100 | 52.7 | > 100 | > 100 | 42 | > 100 |  | > 100 | > 100
CCCCCCOc1ccc(C(=O)NOCc2ccccc2)cc1 | > 100 | > 100 | > 100 | > 100 | > 100 | > 100 | > 100 | > 100 | > 100 | 
COc1cccc(NC(=S)Nn2c(C)nc3ccccc3c2=O)c1 | > 100 |  |  | > 100 | > 100 | > 100 | > 100 | > 100 | > 100 | 
CCCn1c(SCC)c2ccccc2c1-c1nc(F)nc(F)n1 | > 100 |  |  | > 100 | > 100 |  | > 100 | > 100 | > 100 | 
CCc1n[nH]c(=O)n1/N=C/c1ccccc1Cl | > 100 | > 100 | > 100 | > 100 | > 100 |  | > 100 | > 100 | > 100 | > 100
CC(OC(=O)NCn1cc(-c2ccccc2)nn1)c1ccccc1 (stereo unspecified) |  | > 100 | > 100 | > 100 | > 100 |  |  | > 100 | 47.4 | 
O=C(/C=C/c1ccc(Cl)cc1)Oc1ccc(/C=C2\CCCCC2=O)cc1 | > 100 | > 100 |  | > 100 | > 100 | > 100 | > 100 | > 100 | 73.9 | > 100
COC1=CC(=O)[C@H]2[C@H](C)C(c3ccccc3)[C@@]2(C)C1=O (stereo partly specified) | > 100 |  |  | > 100 | > 100 | > 100 | > 100 | > 100 | > 100 | 
O=C1CCC[C@]2(CCC[C@@H](O)C2)N1 |  | > 100 | > 100 |  |  | > 100 | > 100 | > 100 |  | > 100
COC(=O)C1=C(C(=O)OC)C2(OC(C)=O)c3ccccc3-c3ccccc3C12 (stereo unspecified) | 8.97 |  |  | 11.9 | 3.12 | 24.4 | 6.48 | 32.8 |  | 
N#Cc1c(-c2ccco2)cc(-c2ccc(NCc3nc4ccccc4[nH]3)cc2)nc1N | 58.7 |  |  | 67.5 | > 100 | 91.6 | 66.3 | 43.3 | 39.7 | 
CCCc1cc(=O)oc2c3c(c4c(c12)OC(C)(C)C=C4)O[C@@H](C)[C@H](C)C3=O | 31.4 | 61.1 | 35.4 | 25.7 | 32.2 | 30.7 |  | 44.4 | 26.8 | 
COc1cc2c(c(C)c1O)[C@H]1COc3ccccc3[C@H]1O2 | 35.5 |  |  | > 100 |  | 23.7 | 89.3 | 31.8 | 42.7 | 
CC1(C)CC(=O)C2=C(C1)c1c(ccc3ccccc13)NC2c1cn(Cc2ccc(Cl)cc2)c2ccccc12 (stereo unspecified) | > 100 | > 100 | > 100 |  | > 100 | > 100 | > 100 | > 100 | > 100 | > 100
CC1(C)N=C(C(N)=O)c2ncn(-c3ccccc3)c2N1 |  | > 100 | > 100 | > 100 | > 100 | > 100 | > 100 | > 100 |  | > 100
